From publication PMC7926495, “Preclinical Pharmacokinetics and Biodistribution of Anticancer Dinuclear Palladium(II)-Spermine Complex (Pd2Spm) in Mice” (Pharmaceuticals, 2021)

Legend:
[1] = tested on: plasma proteins; conditions: mouse, in vivo
Protocol: After drug administration, five animals from each group were euthanized at selected time-points (0.5, 1, 6, 12, 24 and 48 h) with pentobarbital intraperitoneal injection (120 mg/kg) followed by cardiac puncture for blood collection. Blood serum was separated after leaving the blood to coagulate for 30 min at room temperature and centrifugation (at 500× g, and 4 °C for 15 min). […] Both blood serum and serum ultrafiltrate were aliquoted (50 μL) and stored at −80 °C until ICP-MS analysis.
Briefly, 50 μL of blood serum, 50 μL of serum ultrafiltrate and weighed entire freeze-dried organs/tissues (up to 50 mg) were placed into 10 mL polypropylene conical tubes. In the case of liver, for which the weight surpassed 50 mg, the tissue was first pulverized with a Precellys® Evolution tissue homogenizer (Bertin-Instruments, Montigny-le-Bretonneux, France) using 2.8 mm stainless steel beads (two cycles of 10 s at 6000 rpm speed) and accurately weighed (50 mg) in tubes. Samples were digested directly in tubes with 0.9 mL of HNO3 (≥69.0% w/w) plus 0.3 mL of HCl (37% w/w) in a water bath at 90 °C for 1 h. Sample digests were cooled to room temperature, 0.5 mL of a 100 µg/L internal standards (IS) solution was added and the final volume was adjusted to 5 mL with ultrapure water (final concentration of IS = 10 µg/L). […]

[2] = tested on: H2AX histone (γH2AX); set-up: method as in PMID 21371266; conditions: cited from earlier work
[3] = tested on: HCC-1143 cells; assay: In vitro cellular drug uptake/accumulation by ICP-MS; assay type: cell-based, human; conditions: 24 h; for dependence of cellular drug uptake on drug concentration in medium: 2-8 µM
Protocol: (§1) The in vitro studies were performed on human triple-negative (lack of estrogen receptors, progesterone receptors and HER2 overexpression) breast cancer cell lines MDA-MB-231 and HCC-1143, which were purchased from the Leibniz Institute DSMZ-German Collection of Microorganisms and Cell Cultures GmbH, Germany. MDA-MB-231 were cultured in DMEM-HG cell culture medium supplemented with 10% (v/v) FBS, and HCC-1143 cells were cultured in RPMI-1640 cell culture medium supplemented with 20% (v/v) FBS. Cells were maintained in a sterile environment at 37 °C with a 5% CO2 humidified atmosphere and were routinely tested for mycoplasma contamination.
(§2) The intracellular Pt and Pd accumulation in MDA-MB-231 and HCC-1143 cells was analyzed using ICP-MS. First, 3 × 10^4/cm^2 cells were seeded in T75 culture flasks and allowed to attach for 24 h. […] The cells were trypsinized, washed twice with ice-cold 0.9% saline solution, and 10^6 cells were pelleted and freeze-dried. The lyophilized cell pellets were digested and analyzed using the same analytical procedure described for the pharmacokinetic study. […] The protein concentration used for the data normalization was determined from identical samples that were prepared in parallel and quantified with the Bradford protein assay.

[4] = tested on: MDA-MB-231 cells; assay: as above; assay type: cell-based, human; conditions: 24 h; for dependence of cellular drug uptake on drug concentration in medium: 2-8 µM
Protocol: as §1, §2

[5] = set-up: species or system Balb/c mice; conditions: mouse, in vivo; for Tmax: ip
Protocol: After drug administration, five animals from each group were euthanized at selected time-points (0.5, 1, 6, 12, 24 and 48 h) with pentobarbital intraperitoneal injection (120 mg/kg) followed by cardiac puncture for blood collection. Blood serum was separated after leaving the blood to coagulate for 30 min at room temperature and centrifugation (at 500× g, and 4 °C for 15 min). […] Both blood serum and serum ultrafiltrate were aliquoted (50 μL) and stored at −80 °C until ICP-MS analysis. Right brain hemisphere, liver, lungs, heart, right kidney, ovaries, abdominal white adipose tissue and abdominal mammary glands were excised at the same time, washed in cold PBS, blotted dry on filter paper and weighed. Solid tissues were freeze-dried (0.016 mBar, −80.8 °C, 48 h; Telstar®, model Cryodos Barcelona, Spain) and stored hermetically sealed at −80 °C until ICP-MS analysis.
Briefly, 50 μL of blood serum, 50 μL of serum ultrafiltrate and weighed entire freeze-dried organs/tissues (up to 50 mg) were placed into 10 mL polypropylene conical tubes. In the case of liver, for which the weight surpassed 50 mg, the tissue was first pulverized with a Precellys® Evolution tissue homogenizer (Bertin-Instruments, Montigny-le-Bretonneux, France) using 2.8 mm stainless steel beads (two cycles of 10 s at 6000 rpm speed) and accurately weighed (50 mg) in tubes. Samples were digested directly in tubes with 0.9 mL of HNO3 (≥69.0% w/w) plus 0.3 mL of HCl (37% w/w) in a water bath at 90 °C for 1 h. Sample digests were cooled to room temperature, 0.5 mL of a 100 µg/L internal standards (IS) solution was added and the final volume was adjusted to 5 mL with ultrapure water (final concentration of IS = 10 µg/L). Prior to ICP-MS analysis, samples were further diluted 5-fold with a diluent solution (2% HNO3 + 3% HCl + 10 µg/L IS). An iCAP^TM Q (Thermo Fisher Scientific, Bremen, Germany) ICP-MS was used for the determination of Pd and Pt in the obtained solutions. Calibration standards ranging from 0.025 to 100 µg/L were prepared from the 100 mg/L multi-element commercial TraceCERT®, ICH Q3D oral, Standard 2 solution. The IS solution was prepared at 100 µg/L by appropriate dilution of the ICP-MS-200.8-IS-1 solution.
The mean concentrations of Pd or Pt in serum and serum ultrafiltrate were plotted logarithmically versus time. Non-compartmental analysis was performed on sparse data with 1/Y^2 weighting, which was selected based on the highest correlation coefficients and agreement between observed versus predicted pharmacokinetic parameters. […] The area under the curve (AUC) from time zero to the last time with quantified concentration (AUC0-48h) was calculated by a linear log trapezoidal (linear up log down) method. The AUC from time zero to infinity (AUC0−∞) was extrapolated as AUC0−48 h + C48h/λz, where C48h is the last measured concentration, and λz is the elimination constant rate calculated using linear regression of the terminal portion of the log–linear serum concentration–time curve. The drug half-life (t1/2) was calculated as ln2/λz. The rate of total clearance (CL/F) of the compound was calculated as the administered metal dose divided by the AUC0−∞. The distribution volume based on the terminal phase (Vz/F) was calculated as dose/[λz.AUC0−∞].

[6] = mouse, in vivo
Protocol: After drug administration, five animals from each group were euthanized at selected time-points (0.5, 1, 6, 12, 24 and 48 h) with pentobarbital intraperitoneal injection (120 mg/kg) followed by cardiac puncture for blood collection. Blood serum was separated after leaving the blood to coagulate for 30 min at room temperature and centrifugation (at 500× g, and 4 °C for 15 min). […] Both blood serum and serum ultrafiltrate were aliquoted (50 μL) and stored at −80 °C until ICP-MS analysis. Right brain hemisphere, liver, lungs, heart, right kidney, ovaries, abdominal white adipose tissue and abdominal mammary glands were excised at the same time, washed in cold PBS, blotted dry on filter paper and weighed. […]
The mean concentrations of Pd or Pt in serum and serum ultrafiltrate were plotted logarithmically versus time. […] The area under the curve (AUC) from time zero to the last time with quantified concentration (AUC0-48h) was calculated by a linear log trapezoidal (linear up log down) method. […] The drug half-life (t1/2) was calculated as ln2/λz. The rate of total clearance (CL/F) of the compound was calculated as the administered metal dose divided by the AUC0−∞. The distribution volume based on the terminal phase (Vz/F) was calculated as dose/[λz.AUC0−∞].

[7] = tested on: albumin / plasma proteins; conditions: rodents, 3 h post-administration; cited from earlier work

| Structure (SMILES) | decrease of fraction bound to plasma proteins at 48 h compared to the preceding period [1] | phosphorylation of H2AX histone (γH2AX) compared to cisplatin [2] | dependence of cellular drug uptake on drug concentration in medium [3] | intracellular accumulation compared to cisplatin ([3]; equimolar 2-8 µM) | dependence of cellular drug uptake on drug concentration in medium [4] | intracellular accumulation compared to cisplatin ([4]; equimolar 2-8 µM) | concentration of free Pd/Pt in serum ultrafiltrate at 48 h [5] | Tmax [5] | higher accumulation of Pd relative to Pt [6] | lower accumulation of Pd than Pt (dose-normalized AUC) [6] | bound to albumin (mostly via irreversible covalent bonds) [7] |
| --- | --- | --- | --- | --- | --- | --- | --- | --- | --- | --- | --- |
| [Cl][Pd-2]1([Cl])[NH2+]CCC[NH+]1CCCC[NH+]1CCC[NH2+][Pd-2]1([Cl])[Cl] (stereo not drawn) [Pd2Spm] | 3.1% | more extensive phosphorylation of H2AX histone | increase linearly with drug concentration | lower intracellular Pd2Spm increase as compared to cisplatin | increase linearly with drug concentration | lower intracellular Pd2Spm increase as compared to cisplatin | 2.3 ng/mL | 30 min | 74.2% | 82.7% |  |
| N.N.[Cl][Pt][Cl] [Cisplatin, cis-dichlorodiammine platinum(II), reference compound] |  |  | increase linearly with drug concentration |  | increase linearly with drug concentration |  | 4.1 ng/mL | 30 min |  |  |  |
| O=C(O)C(=O)O.[NH-][C@@H]1CCCC[C@H]1[NH-].[Pt+2] [oxaliplatin] |  |  |  |  |  |  |  |  |  |  | > 85% |
